Reference: US9102648B1, “Bioavailable diacylhydrazine ligands for modulating the expression of exogenous genes via an ecdysone receptor complex” (Intrexon Corporation, priority 2003, dated 2015)
pEC50: −log10 of the molar value. Like-named read-outs stand apart in the source and are kept apart here.

Legend:
[1] = molecular target: T1, Bombyx mori EcR (VP16 fusion, CVBE switch construct) (Bombyx mori, UniProt P49881); assay: Z3 Assay (HEK-293 cells with CVBE and 6XEcRE LacZ, β-galactosidase reporter); conditions: for fold induction at 3.3 µM: HEK293, read-out: Fold Induction, Z3 Assay, 3.3 uM; for fold induction at 33 µM: HEK293, read-out: Fold Induction, Z3 Assay, 33 uM; for Z3 assay Rel Max FI: maximum fold induction at any concentration relative to that of GS-E ligand; for Fold Induction, Z3 Assay, 3.3 uM: 3.3 uM ligand; for Fold Induction, Z3 Assay, 3.3 uM / Fold Induction, Z3 Assay, 33 uM: ligand treated / DMSO treated cells; for Fold Induction, Z3 Assay, 33 uM: 33 uM ligand
T1 sequence (P49881 86-606): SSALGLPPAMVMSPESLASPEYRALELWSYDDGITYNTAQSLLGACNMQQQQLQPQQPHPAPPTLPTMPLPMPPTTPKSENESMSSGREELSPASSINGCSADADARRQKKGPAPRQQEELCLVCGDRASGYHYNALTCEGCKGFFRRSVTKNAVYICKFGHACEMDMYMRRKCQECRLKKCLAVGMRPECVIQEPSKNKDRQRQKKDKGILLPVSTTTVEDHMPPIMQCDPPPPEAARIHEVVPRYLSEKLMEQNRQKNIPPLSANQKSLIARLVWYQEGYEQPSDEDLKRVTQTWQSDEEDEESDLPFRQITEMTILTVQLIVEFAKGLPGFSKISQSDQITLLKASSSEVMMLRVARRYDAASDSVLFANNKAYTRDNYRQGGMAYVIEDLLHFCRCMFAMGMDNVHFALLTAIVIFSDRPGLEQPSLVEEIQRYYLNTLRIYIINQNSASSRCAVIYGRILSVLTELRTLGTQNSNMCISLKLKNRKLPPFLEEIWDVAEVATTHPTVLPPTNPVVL
T1 sequence (P19793 1-462 partner): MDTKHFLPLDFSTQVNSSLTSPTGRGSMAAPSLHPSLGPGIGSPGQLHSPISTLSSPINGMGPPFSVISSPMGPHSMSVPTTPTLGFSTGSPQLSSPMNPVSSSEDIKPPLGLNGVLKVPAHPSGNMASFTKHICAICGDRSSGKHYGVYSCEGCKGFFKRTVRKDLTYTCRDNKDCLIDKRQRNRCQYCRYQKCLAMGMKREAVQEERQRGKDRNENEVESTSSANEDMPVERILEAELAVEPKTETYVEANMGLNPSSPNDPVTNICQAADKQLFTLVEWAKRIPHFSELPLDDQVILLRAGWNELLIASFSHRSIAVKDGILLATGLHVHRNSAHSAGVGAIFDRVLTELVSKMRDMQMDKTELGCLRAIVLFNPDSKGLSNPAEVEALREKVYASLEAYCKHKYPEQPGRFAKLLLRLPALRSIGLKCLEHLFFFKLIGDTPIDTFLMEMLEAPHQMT

[2] = molecular target: GAL4 DBD-CfEcR(DEF)/VP16AD-MmRXRE (Choristoneura fumiferana, UniProt O77240); assay: 13B3 Assay (CHO stable cell line, luciferase reporter); conditions: for 13B3 assay Rel Max FI: maximum fold induction at any concentration relative to that of GS-E ligand, CHO 13B3 cells; for fold induction at 3.3 µM: read-out: Fold Induction, 13B3 Assay, 3.3 uM; for fold induction at 33 µM: read-out: Fold Induction, 13B3 Assay, 33 uM; for Fold Induction, 13B3 Assay, 3.3 uM: 3.3 uM ligand; for Fold Induction, 13B3 Assay, 3.3 uM / Fold Induction, 13B3 Assay, 33 uM: RLU ligand treated / RLU DMSO treated cells; for Fold Induction, 13B3 Assay, 33 uM: 33 uM ligand
Summary of the method: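 Ligands dosed at 8 levels from 33 to 0.01 μM (DMSO stocks diluted 300-fold) onto the 13B3 CHO line carrying GAL4-DBD/CfEcR-DEF, VP16/MmRXR-DE and a GAL4-responsive luciferase gene.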

[3] = read-out: Z3 assay EC50, HEK-293 Z3 cells, β-galactosidase reporter, average of two wells
[4] = read-out: 13B3 EC50, CHO 13B3 stable cell line, luciferase reporter, 48 h, average of two wells

Structure (SMILES)	pEC50 [1]	fold induction at 3.3 µM [1]	fold induction at 33 µM [1]	Z3 assay Rel Max FI ([1]; HEK-293 Z3 cells)	pEC50 [2]	13B3 assay Rel Max FI [2]	fold induction at 3.3 µM [2]	fold induction at 33 µM [2]	Fold Induction, Z3 Assay, 3.3 uM ([1]; average of two wells)	Fold Induction, Z3 Assay, 33 uM ([1]; average of two wells)	pEC50 [1, 3]	Fold Induction, 13B3 Assay, 3.3 uM ([2]; average of two wells)	Fold Induction, 13B3 Assay, 33 uM ([2]; average of two wells)	pEC50 [2, 4]
COc1cccc(C(=O)NN(C(=O)c2cc(C)cc(C)c2)C(C)(C)C)c1CO [RG-115371, 3,5-dimethyl-benzoic acid N-tert-butyl-N′-(2-hydroxymethyl-3-methoxy-benzoyl)-hydrazide]	5.52	249	1770	0.76	< 4.30	1.44	1	1090	–	–	–	–	–	–
COc1cccc(C(=O)NN(C(=O)c2cc(C)cc(C)c2)C(C)(C)C)c1CSC [RG-115358, 3-Methoxy-2-methylsulfanylmethyl-benzoic acid N′-tert-butyl-N′-(3,5-dimethyl-benzoyl)-hydrazide]	5.02	33	769	0.48	< 4.30	0.20	1	584	–	–	–	–	–	–
COc1cccc(C(=O)NN(C(=O)c2cc(C)cc(C)c2)C(C)(C)C)c1CF [RG-115160]	–	–	–	0.21	–	0	–	–	3	157	< 4.30	3	3	< 4.30
CCc1c(OC)cccc1C(=O)NN(C(=O)c1cc(OC)ccc1OC)C(C)(C)C [RG-100779]	–	–	–	0.707	–	–	–	–	947	304	6.75	–	2979	–
Cc1cc(C)cc(C(=O)N(NC(=O)c2ccc3c(c2Cl)COCO3)C(C)(C)C)c1 [RG-115532]	–	–	–	0.933	–	0.835	–	–	530	–	6.89	908	738	6.29
CCc1ccc(C(=O)NN(C(=O)c2cc(C)ccc2[N+](=O)[O-])C(C)(C)C)cc1 [RG-101398]	–	–	–	0.712	–	–	–	–	1138	403	6.55	–	159	–
CCc1ccc(C(=O)NN(C(=O)c2cc(C)cc(C)c2)C(C)(C)C)cc1CC [RG-101889]	–	–	–	–	–	–	–	–	1085	245	5.48	–	378	–
Cc1cc(C)cc(C(=O)N(NC(=O)c2cccc(I)c2C)C(C)(C)C)c1 [RG-101734]	–	–	–	0.988	–	–	–	–	987	951	6.84	918	442	–
CCc1c(OC)cccc1C(=O)NN(C(=O)c1cc(OC)c(C)c(OC)c1)C(C)(C)C#N [RG-115690]	–	–	–	0.998	–	1.181	–	–	571	–	6.68	930	–	6.20
CCc1c(OC)cccc1C(=O)NN(C(=O)c1cnc(C)cn1)C(C)(C)C [RG-115091]	–	–	–	–	–	–	–	–	–	61	–	–	1	–
CCc1c(C(=O)NN(C(=O)c2ccccc2OC)C(C)(C)C)ccc2c1OCO2 [RG-100698]	–	–	–	1.025	–	–	–	–	1089	591	6.00	–	434	–
COc1cc(C(=O)N(NC(=O)c2cccc(O)c2C)C(C)(C)C)cc(OC)c1C [RG-115220]	–	–	–	0.591	–	0.125	–	–	298	–	6.06	5	1143	< 4.30
CCc1ccc(C(=O)NN(C(=O)c2cc(F)c(F)c(F)c2)C(C)(C)C)c(F)c1 [RG-115259]	–	–	–	0.617	–	0.702	–	–	91	–	6.37	3513	2981	5.57
Cc1cc(C)cc(C(=O)N(NC(=O)c2ccc3ncsc3c2)C(C)(C)C)c1 [RG-101312]	–	–	–	0.955	–	–	–	–	600	292	5.25	–	1874	–
Cc1c(C(=O)NN(C(=O)c2ccccc2[S+](C)[O-])C(C)(C)C)ccc2c1OCCO2 (stereo not drawn) [RG-115064]	–	–	–	0.031	–	0.000	–	–	1	3	< 4.30	2	415	< 4.30
CCc1ccc(C(=O)NN(C(=O)c2ccc(F)cc2)C(C)(C)C)c(F)c1 [RG-100901]	–	–	–	0.918	–	–	–	–	1527	185	6.50	–	882	–
COc1cccc(C(=O)NN(C(=O)c2cc(C)cc(C)c2)C(C)(C)C)c1CCl [RG-115490, 3,5-dimethyl-benzoic acid N-tert-butyl-N′-(2-chloromethyl-3-methoxy-benzoyl)-hydrazide]	5.20	123	814	0.44	< 4.30	1.01	2	844	–	–	–	–	–	–
CC(C)(C)N(NC(=O)c1ccc(Br)cc1)C(=O)c1cc(Cl)cc(Cl)c1 [RG-101759]	–	–	–	0.639	–	0.336	–	–	796	158	6.48	623	137	6.06
CCc1c(OC)cccc1C(=O)NN(C(=O)c1cnccn1)C(C)(C)C [RG-115550, pyrazine-2-carboxylic acid N-tert-butyl-N′-(2-ethyl-3-methoxy-benzoyl)-hydrazide]	–	–	21	–	–	–	1	–	–	–	–	–	–	–
